pIC50: −log10 of the molar value.
Assays:
[1] = tested on: L1210 murine leukemia; details: cited from earlier work
[2] = target: T1, DHODH (Homo sapiens (Human), UniProt Q02127); assay: DHODH activity assay (coupled enzyme assay, DCIP reduction); format: biochemical; details: read-out: DHODH inhibition activity, IC50 group
Procedure: The DHODH activity assay is a coupled enzyme assay in which oxidation of DHO and subsequent reduction of ubiquinone are stoichiometrically equivalent to the reduction of DCIP ([…]). The reduction of DCIP is accompanied by a loss of absorbance at 610 nm.
Buffer Preparation: 50 mM tris HCl, 150 mM KCl, and pH 8.0, 0.8% triton.
L-Dihydroorotic acid stock solution of 20 mM in buffer.
2, 6-Dichloroindophenol Sodium salt hydrate stock solution of 20 mM in buffer.
Decylubiquinone stock solution of 20 mM in buffer.
5 μL of Dimethyl sulfoxide or a compound of formula (I) in DMSO solution was added to the wells of a 96 well plate. Compounds of formula (I) were measured at 10 μM.
Protein along with buffer was added, so that the total volume including the DMSO was 87 μL. Compound and protein were incubated for half an hour at room temperature after mixing. 5 μL of 20 mM solution of L-Dihydroorotic acid, 5 μL of 2 mM solution of Decylubiquinone and 3 μL of 2 mM solution of 2, 6-Dichloroindophenol sodium salt hydrate were added to the above solution (total assay volume 100 μL). The mixture was stirred for 2 min and absorbance was recorded at every 10 min at 610 nanometers.
Percent inhibition is calculated as follows: […]
A 2 mM DMSO stock solution of the selected trisubstituted benzoimidazole and benzotriazole derivatives of formula (I) of the present invention to be examined was prepared. Subsequent ⅓rd dilutions were made.
5 μL of each stock of compound of formula (I) was used for each 100 μL assay. Therefore, 5 μL of the 2 mM stock provided 100 μL of 100 μM solution of compound of formula (I), when made up with buffer, protein and substrate. See also: Ulrich et al. (2001) Eur. J. Biochem.268, 1861-1868.
Target sequence in this assay (Q02127 whole entry): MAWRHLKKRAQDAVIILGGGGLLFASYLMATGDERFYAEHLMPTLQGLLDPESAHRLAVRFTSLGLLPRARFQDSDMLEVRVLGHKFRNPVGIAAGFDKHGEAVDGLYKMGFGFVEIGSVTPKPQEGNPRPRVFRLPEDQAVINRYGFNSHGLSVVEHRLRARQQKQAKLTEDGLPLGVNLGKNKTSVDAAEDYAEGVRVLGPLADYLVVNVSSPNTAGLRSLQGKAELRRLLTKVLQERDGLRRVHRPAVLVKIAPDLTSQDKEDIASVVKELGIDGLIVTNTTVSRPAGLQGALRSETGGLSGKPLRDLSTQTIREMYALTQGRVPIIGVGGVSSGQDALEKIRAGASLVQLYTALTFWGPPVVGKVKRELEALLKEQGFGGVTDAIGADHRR

[3] = tested on: Ramos cells; assay: Ramos proliferation assay (XTT); format: cell-based; details: Homo sapiens, 72 hrs; for inhibition at 30 µM: read-out: Maximum % Inhibition at 30 μM; for pIC50: XTT; for inhibition at 10 µM: read-out: Maximum % Inhibition (at 10 μM)
Description: Cell proliferation assay is a sensitive method for quantification of viable cells in cytotoxicity or proliferation assay. The XTT (2,3-bis[2-Methoxy-4-nitro-5-sulfophenyl]-2 H-tetrazolium-5-carboxyanilide inner salt) system is a means of measuring the activity of living cells via mitochondrial dehydrogenases. Mitochondrial dehydrogenases of viable cells cleave the tetrazolium ring of XTT, yielding orange formazon crystals which are soluble in aqueous solutions. The XTT solution is potentiated by the addition of an electron coupling agent, phenazine methosulphate (PMS) to the reaction. The resulting orange colour is spectrophotometrically measured at 450 nm. An increase or decrease in cell numbers results in a concomitant change in the amount of formazon formed, indicating the degree of cytotoxicity caused by the test material.
Dissolve 17.7 g IMDM (Iscove's Modified Dulbecco's Medium) powder, 1.5 g sodium bicarbonate pH 7.2-7.4 in 1 L MiliQ water, add 1% Pencilin/ Streptomycin and 10% FBS.
Dissolve 10.6 g Ham's F12 powder, 1.5 g sodium bicarbonate pH 7.2-7.4 in 1 L MiliQ water, add 1% Penicillin/Streptomycin. DMSO used as vehicle.
Ramos cells were re-suspended to a density of 1×10^5 cells/ ml in complete IMDM medium. 95 μL of this cell suspension was added to the 96-well plate to seed ˜10,000 cells per well. The plates were incubated at 37° C. under a humidified atmosphere of 5% CO2 for ˜1 hour before compound addition.
Test compounds (Refer to Table 1) were dissolved in 100% DMSO to generate a 2/6/10/20 mM stock solution. A 200× concentration of the required final concentrations was prepared in DMSO. 10 μL of each concentration (200×) was then diluted in 90 μL of serum-free Ham's F12 medium to get an intermediate concentration of 20× in medium. The DMSO concentration in this step is 10% (Intermediate dilution). 5 μL of each intermediate dilution was then added in triplicates in the previously seeded 96-well plate. The final DMSO concentration was 0.5% in the experimental wells. Cells treated with 0.5% DMSO served as positive control. 100 μL, of complete IMDM medium served as media blank for data analysis. 200 μL, of 1× PBS was added in all corner wells of the assay plate. Plates were then incubated for 72 hrs in an incubator with 5% CO2 at 37° C.
On termination day, 100 μl of XTT solution (1 mg/ml XTT supplemented with 25 μM PMS in Ham's F12 medium) was added to each well. Plates were incubated for 2 hrs. The amount of formazon produced was determined by reading the absorbance of the plate using VICTOR X5 multilabel plate reader at wavelength of 450 nm. The IC50 values were determined as concentrations that reduced cell viability by 50% and the curve was plotted with GraphPad Prism 6.0.
Percent (%) Inhibition was calculated by normalizing DMSO control values to 100% using the formula: % Inhibition=[…](Abs450test compound−blank)/(Abs450positive control−blank)*100
Test compound contains cells, test compound, IMDM medium and 0.5% DMSO
Positive control contains cells, IMDM medium and 0.5% DMSO
Blank contains IMDM medium

[4] = target: T1, DHODH; details: cited from earlier work
Target sequence in this assay (Q02127 whole entry, species assumed): as the sequence (Q02127 whole entry) above

Row | SMILES | pIC50 [2] | pIC50 [3] | Anticancer activity [1] | inhibition at 30 µM [3] | inhibition at 10 µM [3] | Fold greater inhibitor of DHODH than of protein tyrosine kinase [4]
1 | Cc1c(-c2ccc(-c3ccccc3F)cc2)nc2ccc(F)cc2c1C(=O)O [Brequinar, 6-Fluoro-2-(2′-fluoro[1,1′-biphenyl]-4-yl)-3-methyl-4-quinolinecarboxylic acid] | – | – | exhibits an anticancer activity | – | – | –
2 | CN1CCN(Cc2ccccc2-c2ccc(C3=CC4N=NN(C)C4C(C(=O)O)=C3)cc2)CC1 (stereo not shown) [Compound 29, 1-methyl-5-(2′-((4-methylpiperazin-1-yl)methyl)-[1,1′-biphenyl]-4-yl)-3a,7a-dihydro-1H-benzo[d][1,2,3]triazole-7-carboxylic acid] | 6.00 to 7.00 | 5.05 | – | 81% | – | –
3 | CN1CCN(Cc2ccccc2-c2ccc(-c3cc(C(=O)O)c4nn(C)nc4c3)cc2)CC1 [Compound 30, 2-methyl-6-(2′-((4-methylpiperazin-1-yl)methyl)-[1,1′-biphenyl]-4-yl)-2H-benzo[d][1,2,3]triazole-4-carboxylic acid] | < 6.00 | – | – | 56% | – | –
4 | Cn1nnc2cc(-c3ccc(-c4ccc(CN5CCOCC5)cc4)cc3)cc(C(=O)O)c21 [Compound 31, 1-methyl-5-(4′-(morpholinomethyl)-[1,1′-biphenyl]-4-yl)-1H-benzo[d][1,2,3]triazole-7-carboxylic acid] | < 6.00 | 5.87 | – | – | 81% | –
5 | CC(=O)Nc1cccc(-c2ccc(-c3cc(C(=O)O)c4c(c3)nnn4C)cc2)c1 [Compound 32, 5-(3′-acetamido-[1,1′-biphenyl]-4-yl)-1-methyl-1H-benzo[d][1,2,3]triazole-7-carboxylic acid] | < 6.00 | 4.84 | – | 74% | – | –
6 | C/C(O)=C(\C#N)C(=O)Nc1ccc(C(F)(F)F)cc1 [Teriflunomide] | – | – | – | – | – | 100-1,000 fold

More lines, main results first:

Row | pIC50 [2] | pIC50 [3] | SMILES | Anticancer activity [1] | inhibition at 30 µM [3] | inhibition at 10 µM [3] | Fold greater inhibitor of DHODH than of protein tyrosine kinase [4]
7 | 6.00 to 7.00 | 6.17 | Cn1nnc2cc(-c3c(F)c(F)c(-c4cccc(CN5CCCCC5)c4)c(F)c3F)cc(C(=O)O)c21 [Compound 34, 1-methyl-5-(2,3,5,6-tetrafluoro-3′-(piperidin-1-ylmethyl)-[1,1′-biphenyl]-4-yl)-1H-benzo[d][1,2,3]triazole-7-carboxylic acid.2,2,2-trifluoroacetic acid] | – | – | 111% | –
8 | 6.00 to 7.00 | 5.80 | Cn1nc2cc(-c3c(F)c(F)c(-c4cccc(CN5CCCCC5)c4)c(F)c3F)cc(C(=O)O)c2n1 [Compound 38, 2-methyl-6-(2,3,5,6-tetrafluoro-3′-(piperidin-1-ylmethyl)-[1,1′-biphenyl]-4-yl)-2H-benzo[d][1,2,3]triazole-4-carboxylic acid] | – | 92% | – | –
9 | 6.00 to 7.00 | 5.73 | Cn1nc2cc(-c3c(F)c(F)c(-c4cccc(CN5CCOCC5)c4)c(F)c3F)cc(C(=O)O)c2n1 [Compound 39, 2-methyl-6-(2,3,5,6-tetrafluoro-3′-(morpholinomethyl)-[1,1′-biphenyl]-4-yl)-2H-benzo[d][1,2,3]triazole-4-carboxylic acid] | – | 96% | – | –
10 | 6.00 to 7.00 | 4.93 | CN(C)Cc1cccc(-c2c(F)c(F)c(-c3cc(C(=O)O)c4c(c3)nnn4C)c(F)c2F)c1 [Compound 40, 5-(3′-((dimethylamino)methyl)-2,3,5,6-tetrafluoro-[1,1′-biphenyl]-4-yl)-1-methyl-1H-benzo[d][1,2,3]triazole-7-carboxylic acid] | – | 84% | – | –

Source: patent publication US11147801B2, “Methods of use for trisubstituted benzotriazole derivatives as dihydroorotate oxygenase inhibitors” (Aurigene Discovery Technologies Limited, priority 2017, dated 2021)
